Reference: paper PMC8050080, “Cannabis sativa terpenes are cannabimimetic and selectively enhance cannabinoid activity” (Scientific Reports, 2021)

Columns and labels:
[1] = tested on: WT CHO cells; assay: ERK phosphorylation (Western) in WT CHO cells; type: cell-based; settings: for ERK phosphorylation in WT CHO cells: 500 μM terpene or 10 μM WIN55,212-2, 5 min, Fig. 7B; for rimonabant sensitivity of ERK activation in WT CHO cells: 500 μM terpene after 10 μM rimonabant, Fig. 7C
Protocol: WT-CHO cells were obtained from ATCC (#CCL-61). CHO cells stably expressing the human CB1 receptor were obtained from PerkinElmer (#ES-110-C) and utilized for western blots (CB1-CHO-C2) or binding assays (CB1-CHO-C3). HitHunter (CB1-CHO-cAMP) and PathHunter (CB-CHO-βarr2) assays were performed on respective CB1-CHO lines, and were a kind gift from Dr. Robert Laprairie[44]. CHO cells stably expressing cloned CB2 (CB2-CHO) were produced by electroporation with the human CB2 N-3xHA tag cDNA (GeneCopoeia). A stable expressing population was selected for with 500 μg/mL G418. CHO cells stably expressing the human mu opioid receptor were obtained from PerkinElmer (#ES-542-C). All cells were grown on 10 cm dishes in DMEM/F-12 50/50 mix w/ L-glutamine and 15 mM HEPES (Corning) containing 10% heat-inactivated fetal bovine serum, 100 units/mL penicillin, 100 units/mL streptomycin, and 400 μg/mL G418 (CB1-CHO-C2, CB1-CHO-C3, CB2-CHO, MOR-CHO); 800 μg/mL G418 (CB1-CHO-cAMP); 800 μg/mL G418 and 300 μg/mL hygromycin B (CB1-CHO-βarr2). WT CHO were grown as stated above without selection antibiotic. Cells were incubated in a humidified incubator at 37 °C with 5% CO2 and were sub-cultured every 2–3 days.
Cells were plated in 6-well plates 24 h prior to the start of the experiments. Cells were serum starved for 1 h then treated for 5 min with compound. In antagonist experiments, cells were pretreated for 5 min before agonist treatment for 5 min. Media was then aspirated, cells were placed on ice, washed with ice-cold PBS once, and lysis buffer (20 mM Tris–HCl, pH 7.4, 150 mM NaCl, 2 mM EDTA, 0.1% SDS, 1% Nonidet P-40, 0.25% deoxycholate, 1 mM sodium orthovanadate, 1 mM PMSF, 1 mM sodium fluoride, and a protease inhibitor cocktail (EMD Millipore)), was added. Cells were scraped and collected. Lysates were vortexed then centrifuged at 13 k rpm at 4 °C for 10 min. Lysates were then processed for Western blots or stored at − 80 °C.
Cell lysate protein was quantified with a modified BCA protein assay using manufacturers protocol (Bio-Rad). Samples (20–30 μg) were ran on precast gels (10% Bis–Tris, Bolt brand, from ThermoFisher). Gels were wet-transferred to nitrocellulose membranes at 30 V for at least 60 min at 4 °C. Blots were blocked with 5% non-fat dry milk in TBS for 30 min, washed 3 × for 5 min with TBS + 0.1% Tween-20 (TBST), and incubated with primary antibody overnight at 4 °C. Primary antibody: pERK and tERK (Cell Signaling) at 1:1000 dilution in 5% BSA in TBST. Blots were then washed 3 × with TBST then incubated with secondary antibodies for 90 min at room temperature. Secondary antibodies: Goat anti-Rabbit 800 W and Goat anti-Mouse 680 diluted at 1:10,000 and 1:20,000 (Licor), respectively, in 5% non-fat milk in TBST. Blots were washed 3X with TBST and 1 × with TBS, then imaged on a Licor Odyssey Fc or Azure Sapphire. Bands were analyzed using Image-J and reported as pERK/tERK normalized to the standard, or simply as pERK/tERK.

[2] = tested on: male and female CD-1 mice; assay: Tail flick thermal latency test (antinociception); type: in vivo; settings: for tail flick antinociception (efficacy in words): terpenes 50–200 mg/kg i.p. (β-Caryophyllene 100 mg/kg), WIN55,212-2 up to 10 mg/kg, over 2 h
Protocol: Antinociception was tested using the tail flick thermal latency test. Mice were baselined by gently restraining the animal and lowering the distal portion of the tail into a water bath set to 52 °C or 47 °C where stated, and the latency to flick the tail recorded with a stopwatch, with a 10 s cutoff. Mice were then injected with compounds intraperitoneally (i.p.). Thermal latency was then assessed over a time course of 2 h, or at a single time-point as noted. […] For assays using terpene/WIN55,212-2 co-treatment, WIN55,212-2 was co-administered with terpene in the same solution.

[3] = tested on: male and female CD-1 mice; assay: Catalepsy ring test; type: in vivo; settings: for effect of istradefyllene pretreatment on catalepsy response: 10 mg/kg istradefyllene; for effect of istradefyllene pretreatment on catalepsy response / effect of rimonabant pretreatment on catalepsy response: 200 mg/kg terpene, Fig. 4; for effect of rimonabant pretreatment on catalepsy response: 10 mg/kg rimonabant; for catalepsy vs baseline: 15 min after i.p. 200 mg/kg terpene or 5.6 mg/kg WIN55,212-2, Fig. S2B; for catalepsy of terpene combined with WIN55,212-2: 200 mg/kg terpene + 5.6 mg/kg WIN55,212-2, Fig. 4
Protocol: Potential induction of catalepsy was assessed using the ring test as described. Mice were baselined, injected with compound, and then assessed with the ring test at 15 min post-injection. Data was represented as the percentage (%) of time in a “cataleptic” immobile state over the 5 min observation period.

[4] = target: CB1 (Homo sapiens, UniProt P21554); assay: biochemical; type: binding; settings: CB1-CHO membranes, Fig. 8A
[5] = target: T1, human mu opioid receptor (Homo sapiens, UniProt P35372); type: cell-based; settings: 500 μM terpene or 10 μM morphine, 5 min, Fig. S13A
T1 construct: host or cells: CHO (MOR-CHO)
Protocol: Cells were plated in 6-well plates 24 h prior to the start of the experiments. Cells were serum starved for 1 h then treated for 5 min with compound. In antagonist experiments, cells were pretreated for 5 min before agonist treatment for 5 min. […] Cells were scraped and collected. Lysates were vortexed then centrifuged at 13 k rpm at 4 °C for 10 min. Lysates were then processed for Western blots or stored at − 80 °C.
CHO cells were serum starved for 1 hr, then treated with Vehicle, 10 μM morphine, or 500
μM terpene for 5 min. ERK was quantitated and reported as above. Data expressed as the
vs. Vehicle group by 1 Way ANOVA with Dunnett’s post hoc test. B) MOR-CHO cells
serum starved for 1 hr, then pre-treated with Vehicle or 10 μM naloxone for 10 min, then
treated with Vehicle, 10 μM morphine, or 500 μM terpene for 5 min. ERK quantitated,
reported, and normalized as in A (n=3 independent experiments). *, **** = p < 0.05,
0.0001 vs. terpene-alone group for each set by 1 Way ANOVA with Sidak’s post hoc test
(set up as pairwise comparisons between terpene and terpene + naloxone for each set). For
both, representative blots are shown below each graph.

[6] = tested on: male and female CD-1 mice; assay: Hypothermia (core temperature, rectal thermometer); type: in vivo; settings: for hypothermia vs baseline: 30 min after i.p. 200 mg/kg terpene or 5.6 mg/kg WIN55,212-2, Fig. S2A
Protocol: Changes in core temperature were assessed using a lubricated rectal thermometer placed 1.0 cm into the mouse rectum. Temperature was assessed before treatment and 30 min post-treatment.

[7] = tested on: male and female CD-1 mice; assay: Open field test (hypolocomotion); settings: for mobile time of terpene combined with WIN55,212-2: 200 mg/kg terpene + 5.6 mg/kg WIN55,212-2, Fig. 5; for locomotor activity vs baseline / distance traveled and mobile time, experiment without baseline recording: 200 mg/kg terpene or 5.6 mg/kg WIN55,212-2 i.p.; for locomotor activity vs baseline: compared to baseline values, Fig. S2C,D, confounded by habituation; for distance traveled and mobile time, experiment without baseline recording: vs Vehicle, Fig. S3A,B
Protocol: All experiments were performed on male and female CD-1 (a.k.a. ICR) mice obtained from Charles River in age-matched cohorts of 5–6 weeks of age. […] The animals were maintained in an AAALAC-accredited vivarium at the University of Arizona in temperature and humidity-controlled rooms on a 12-h light/dark cycle. Standard chow and water were available ad libitum. […] Mice were randomized to treatment group by randomization of mice to cages upon arrival, and block random assignment of cages to treatment group. The experimenter was blinded to treatment group by the delivery of coded drug vials. The groups were not decoded until all data had been acquired.
The open field test was used to determine potential hypolocomotive properties induced by terpene and cannabinoid treatment. The open field box was a white box with an open top and black floor. The tracking area was 30 cm × 28 cm. Mice were baselined by placing the mouse in the center of the box and recording from a video camera ~ 1.5 m above for a period of 5 min. Mice were then injected with compound and placed back in the open field box 10–15 min post-injection. In follow-up experiments, mice were not baselined, injected with compound, and placed in the open field box from 10 to 15 min. The total distance traveled and mobile time of mice were analyzed using AnyMaze software.

Chain of CB1 (P21554 whole entry): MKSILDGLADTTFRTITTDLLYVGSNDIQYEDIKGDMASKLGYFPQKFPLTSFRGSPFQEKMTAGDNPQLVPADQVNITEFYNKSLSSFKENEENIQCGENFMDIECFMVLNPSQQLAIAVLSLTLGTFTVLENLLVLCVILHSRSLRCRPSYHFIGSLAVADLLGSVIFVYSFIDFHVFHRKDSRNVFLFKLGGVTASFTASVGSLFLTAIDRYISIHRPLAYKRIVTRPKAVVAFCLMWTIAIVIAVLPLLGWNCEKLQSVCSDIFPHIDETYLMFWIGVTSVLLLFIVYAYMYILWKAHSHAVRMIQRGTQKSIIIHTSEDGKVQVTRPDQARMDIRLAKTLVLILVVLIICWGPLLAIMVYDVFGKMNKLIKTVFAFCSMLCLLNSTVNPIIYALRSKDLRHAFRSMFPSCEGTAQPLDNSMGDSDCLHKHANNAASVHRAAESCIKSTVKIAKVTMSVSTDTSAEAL
T1 sequence (P35372 whole entry): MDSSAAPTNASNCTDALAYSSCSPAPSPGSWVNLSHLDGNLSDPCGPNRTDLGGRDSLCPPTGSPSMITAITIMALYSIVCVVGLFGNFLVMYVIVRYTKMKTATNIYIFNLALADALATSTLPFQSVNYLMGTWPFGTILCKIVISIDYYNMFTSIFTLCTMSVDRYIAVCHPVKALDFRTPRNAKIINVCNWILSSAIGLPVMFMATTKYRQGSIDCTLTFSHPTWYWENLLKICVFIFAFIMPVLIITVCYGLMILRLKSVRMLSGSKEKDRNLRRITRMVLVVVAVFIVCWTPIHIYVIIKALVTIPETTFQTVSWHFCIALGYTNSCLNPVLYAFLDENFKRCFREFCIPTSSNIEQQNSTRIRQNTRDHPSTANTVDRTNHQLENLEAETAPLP

Compound	ERK phosphorylation in WT CHO cells [1]	tail flick antinociception (efficacy in words) ([2]; Fig. S1)	effect of istradefyllene pretreatment on catalepsy response [3]	effect of rimonabant pretreatment on catalepsy response [3]	catalepsy vs baseline [3]	competition for the orthosteric binding site against CP55,940 [4]	ERK stimulation in MOR-CHO cells [5]	hypothermia vs baseline [6]	mobile time of terpene combined with WIN55,212-2 [7]	locomotor activity vs baseline [7]	distance traveled and mobile time, experiment without baseline recording [7]	rimonabant sensitivity of ERK activation in WT CHO cells [1]	catalepsy of terpene combined with WIN55,212-2 [3]	other results
C=CC(C)(O)CCC=C(C)C (centres unmarked) [Linalool]	did not cause ERK phosphorylation	dose-dependent low efficacy	partially blocked	small but significant reduction	significant increases in cataleptic behavior	little to no competition	no response	induced significant hypothermia	further decrease in mobile time	significant reductions in locomotor activity	reductions in distance traveled and mobile time	–	–	effect of rimonabant pretreatment on tail flick antinociception ([2]; 200 mg/kg terpene i.p. after 10 mg/kg rimonabant, Fig. 2): fully blocked by rimonabant; tail flick, Linalool combined with WIN55,212-2, females ([2]; female mice, 200 mg/kg + 5.6 mg/kg WIN55,212-2, Fig. S8A): a delay in response and no potentiation over Linalool alone; tail flick, Linalool combined with WIN55,212-2, males ([2]; male mice, 200 mg/kg + 5.6 mg/kg WIN55,212-2, Fig. S8A): greater additive effects of combining both that occurred earlier in the time course; hypolocomotion, antagonist reversal, females ([7]; female mice, 200 mg/kg Linalool, Fig. S8B-C): istradefyllene reversal; hypolocomotion, antagonist reversal, males ([7]; male mice, 200 mg/kg Linalool, Fig. S8B-C): rimonabant reversal
Cc1c(C(=O)NN2CCCCC2)nn(-c2ccc(Cl)cc2Cl)c1-c1ccc(Cl)cc1 [Rimonabant, reference compound]	–	–	–	–	–	–	–	–	–	–	–	–	–	effect of rimonabant pretreatment on morphine-induced antinociception ([2]; 10 mg/kg rimonabant i.p., 5.6 mg/kg morphine, Fig. S5A,B): no significant effect; effect of rimonabant on baseline thermal latency ([2]; 10 mg/kg rimonabant, water bath 47 °C, 30 min, Fig. S5C): no significant effect
CCn1c(=O)c2c(nc(/C=C/c3ccc(OC)c(OC)c3)n2C)n(CC)c1=O [istradefyllene, Istradefyllene, reference compound]	–	–	–	–	–	–	–	–	–	–	–	–	–	effect of istradefyllene alone on temperature ([6]; 10 mg/kg i.p., 30 min, Fig. S6A): small but significant hypothermic; effect of istradefyllene alone on locomotion ([7]; 10 mg/kg i.p., open field after 10 min, Fig. S6B,C): hyperlocomotive effect
C/C1=C\CC/C(C)=C/CC(C)(C)/C=C/C1 [α-Humulene]	activated ERK	–	completely blocked	small but significant reduction	significant increases in cataleptic behavior	some competition and semi-biphasic properties	produced ERK stimulation	induced significant hypothermia	further decrease in mobile time	significant reductions in locomotor activity	did not result in significant reductions	rimonabant-insensitive	additive effects	efficacy in the tail flick assay ([2]; terpene 50–200 mg/kg i.p., dose-dependent, Fig. S1): 40–50%; effect of istradefyllene pretreatment on hypothermia ([6]; 10 mg/kg istradefyllene, 200 mg/kg terpene, Fig. 3): partially reversed; effect of rimonabant pretreatment on hypothermia ([6]; 10 mg/kg rimonabant, 200 mg/kg terpene or 5.6 mg/kg WIN55,212-2, Fig. 3, S4C): partially reverse
C=C1CCC2CC1C2(C)C (stereo not drawn) [β-Pinene]	activated ERK	low efficacy but not in a dose-dependent manner	completely blocked	no impact	significant increases in cataleptic behavior	little to no competition	produced ERK stimulation	induced significant hypothermia	further decrease in mobile time	significant reductions in locomotor activity	reductions in distance traveled and mobile time	rimonabant-insensitive	additive effects	effect of istradefyllene pretreatment on mobile time ([7]; 10 mg/kg istradefyllene, 200 mg/kg terpene, Fig. 5): significant reversal; effect of istradefyllene pretreatment on distance traveled ([7]; 10 mg/kg istradefyllene, 200 mg/kg terpene, Fig. S7): istradefyllene reversal
